Laboratory results as given in publication PMC12714728, “VHH antibody loop guides design of a synthetic macrocyclic peptide that potently blocks influenza virus membrane fusion” (npj Viruses, 2025).
Values joined by “and” are separate entries in the source; they are usually repeats but may differ in a detail not shown here. Equal values may be shown once. Read-outs that look alike come from different tables or passages of the source.

What was measured:
[1] = molecular target: H4N6 A/duck/Czechoslovakia/1956 HA (Influenza A virus, UniProt P19696); format: binding
[2] = molecular target: H6N2 A/turkey/Massachusetts/3740/1965 HA; format: binding, influenza A virus
[3] = molecular target: B/Massachusetts/02/2012 HA (Yamagata lineage); format: binding, influenza B virus
[4] = molecular target: H7N7 A/Netherlands/219/2003 HA; format: binding, influenza A virus
[5] = molecular target: B/Brisbane/33/2008 HA (Victoria lineage); format: binding, influenza B virus
[6] = molecular target: H1N1 A/Solomon Islands/3/2006 HA; format: binding, influenza A virus
[7] = molecular target: H12N5 A/duck/Alberta/60/1976 HA; format: binding, influenza A virus
[8] = tested on: H1/Cal HA (H1N1 A/California/07/2009); format: binding, influenza A virus
[9] = tested on: H1N1 A/Brisbane/59/2007 (H1/Bri) HA; format: biochemical, influenza A virus; settings: pH 5.25
[10] = molecular target: T1, H1/PR8 HA (A/Puerto Rico/8/1934 (H1N1)) (Influenza A virus, UniProt P03452); assay: Trypsin susceptibility (TS) assay; format: biochemical; settings: pH 5.0; 50 μM CP1 or 10 μM CR9114 Fab, 5 μM HA
T1 construct: The HA ectodomain was expressed using a baculovirus expression system in Sf9 cells; gp67 signal peptide (N); thrombin site (C); BirA biotinylation site (C); trimerization domain (C); His-tag (C); made in house; host or cells: Sf9 cells (baculovirus)

[11] = tested on: H1/NCa HA (A/New Caledonia/20/1999 (H1N1)); format: binding, influenza A virus
[12] = tested on: group 1 H1/Cal, H1/NCa, and H5/Viet HAs; format: binding, influenza A virus
[13] = tested on: H5/Viet HA (A/Vietnam/1203/2004 (H5N1)); format: binding, influenza A virus
[14] = molecular target: H3N2 A/Hong Kong/1/1968 HA (Influenza A virus, UniProt Q91MA7); format: binding
[15] = molecular target: H9N2 A/turkey/Wisconsin/1/1966 HA; format: binding, influenza A virus
[16] = tested on: group 1 H1/Cal, H1/NCa, and H5/Viet HAs; format: binding, influenza A virus; remark: listed apart in the source
[17] = tested on: H5/Viet HA (H5N1 A/Vietnam/1203/2004); format: binding, influenza A virus
[18] = In vitro cell permeability / P-gp substrate assay; settings: for Papp A→B: LLC-PK1, Papp AB, LLC-MDR1, apical to basolateral; for Papp B→A: LLC-PK1, Papp BA, LLC-MDR1, basolateral to apical
[19] = tested on: group 2 or influenza B HAs; format: binding, influenza A and B viruses
[20] = molecular target: H1/NCa HA (H1N1 A/New Caledonia/20/1999); format: binding, influenza A virus
[21] = molecular target: H3N2 A/Victoria/361/2011 HA; format: binding, influenza A virus
[22] = molecular target: H10N7 A/chicken/Germany/N/1949 HA (Influenza A virus, UniProt P12581); format: binding
[23] = tested on: H5/Viet virus (A/Vietnam/1203/2004 (H5N1))
[24] = tested on: H1/Cal HA (A/California/07/2009 (H1N1)); format: binding, influenza A virus
[25] = molecular target: H11N6 A/duck/England/1/1956 HA; format: binding, influenza A virus
[26] = In vitro cell permeability assay; settings: for efflux ratio: LLC-PK1, Efflux ratio BA/AB; for efflux ratio / Papp B→A: LLC-Parent; for Papp B→A: LLC-PK1, Papp BA, basolateral to apical
[27] = molecular target: H16N3 A/black-headed gull/Sweden/4/1999 HA; format: binding, influenza A virus
H2N2 A/Adachi/2/1957 HA = format: binding, influenza A virus
[28] = molecular target: H14N5 A/mallard/Astrakhan/263/1982 HA (Influenza A virus, UniProt P26136); format: binding
[29] = molecular target: H1N1 A/duck/Alberta/345/1976 HA; format: binding, influenza A virus
[30] = molecular target: H15N9 A/shearwater/W. Australia/2576/79 HA; format: binding, influenza A virus

H10N7 A/chicken/Germany/N/1949 HA, sequence (P12581 17-524 limits assumed): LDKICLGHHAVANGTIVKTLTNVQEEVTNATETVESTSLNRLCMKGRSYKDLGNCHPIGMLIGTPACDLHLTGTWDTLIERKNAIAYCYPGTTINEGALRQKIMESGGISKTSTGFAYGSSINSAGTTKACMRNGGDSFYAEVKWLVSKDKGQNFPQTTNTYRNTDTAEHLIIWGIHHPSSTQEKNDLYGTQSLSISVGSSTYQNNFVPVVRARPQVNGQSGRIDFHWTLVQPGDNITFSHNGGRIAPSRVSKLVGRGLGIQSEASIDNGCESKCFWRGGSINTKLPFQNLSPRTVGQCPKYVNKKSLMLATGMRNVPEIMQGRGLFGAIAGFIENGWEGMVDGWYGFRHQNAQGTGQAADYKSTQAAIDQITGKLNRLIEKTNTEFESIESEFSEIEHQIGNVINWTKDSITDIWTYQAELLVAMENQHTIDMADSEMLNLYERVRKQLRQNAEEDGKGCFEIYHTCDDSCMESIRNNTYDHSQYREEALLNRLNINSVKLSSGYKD
H3N2 A/Hong Kong/1/1968 HA, sequence (Q91MA7 17-530 limits assumed): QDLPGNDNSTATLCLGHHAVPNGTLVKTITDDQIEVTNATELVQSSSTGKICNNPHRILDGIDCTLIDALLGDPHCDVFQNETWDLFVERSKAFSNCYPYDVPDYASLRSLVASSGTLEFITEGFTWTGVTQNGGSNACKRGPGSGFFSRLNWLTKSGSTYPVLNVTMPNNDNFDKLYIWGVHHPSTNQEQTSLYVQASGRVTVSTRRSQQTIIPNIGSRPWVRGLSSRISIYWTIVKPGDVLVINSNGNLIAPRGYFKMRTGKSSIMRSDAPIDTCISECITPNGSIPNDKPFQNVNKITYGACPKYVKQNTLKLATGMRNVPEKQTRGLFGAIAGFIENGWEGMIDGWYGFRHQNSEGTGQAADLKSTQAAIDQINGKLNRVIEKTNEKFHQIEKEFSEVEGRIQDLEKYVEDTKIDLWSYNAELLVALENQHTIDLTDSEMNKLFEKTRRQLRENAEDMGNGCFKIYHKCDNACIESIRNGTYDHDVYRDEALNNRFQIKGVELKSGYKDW
H4N6 A/duck/Czechoslovakia/1956 HA, sequence (P19696 17-527 limits assumed): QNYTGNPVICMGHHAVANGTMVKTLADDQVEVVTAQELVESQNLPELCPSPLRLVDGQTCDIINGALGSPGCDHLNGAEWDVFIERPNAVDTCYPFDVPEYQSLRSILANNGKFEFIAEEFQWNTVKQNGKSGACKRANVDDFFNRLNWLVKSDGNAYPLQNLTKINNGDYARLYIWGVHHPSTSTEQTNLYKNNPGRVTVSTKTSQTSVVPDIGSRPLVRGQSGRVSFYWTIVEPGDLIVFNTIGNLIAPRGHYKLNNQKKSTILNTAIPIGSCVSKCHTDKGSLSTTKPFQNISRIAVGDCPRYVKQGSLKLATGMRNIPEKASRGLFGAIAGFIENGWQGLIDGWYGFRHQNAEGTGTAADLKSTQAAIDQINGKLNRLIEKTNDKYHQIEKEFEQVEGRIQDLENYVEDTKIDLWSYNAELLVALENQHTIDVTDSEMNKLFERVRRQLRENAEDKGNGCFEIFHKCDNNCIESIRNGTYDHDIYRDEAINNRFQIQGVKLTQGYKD
H14N5 A/mallard/Astrakhan/263/1982 HA, sequence (P26136 18-531 limits assumed): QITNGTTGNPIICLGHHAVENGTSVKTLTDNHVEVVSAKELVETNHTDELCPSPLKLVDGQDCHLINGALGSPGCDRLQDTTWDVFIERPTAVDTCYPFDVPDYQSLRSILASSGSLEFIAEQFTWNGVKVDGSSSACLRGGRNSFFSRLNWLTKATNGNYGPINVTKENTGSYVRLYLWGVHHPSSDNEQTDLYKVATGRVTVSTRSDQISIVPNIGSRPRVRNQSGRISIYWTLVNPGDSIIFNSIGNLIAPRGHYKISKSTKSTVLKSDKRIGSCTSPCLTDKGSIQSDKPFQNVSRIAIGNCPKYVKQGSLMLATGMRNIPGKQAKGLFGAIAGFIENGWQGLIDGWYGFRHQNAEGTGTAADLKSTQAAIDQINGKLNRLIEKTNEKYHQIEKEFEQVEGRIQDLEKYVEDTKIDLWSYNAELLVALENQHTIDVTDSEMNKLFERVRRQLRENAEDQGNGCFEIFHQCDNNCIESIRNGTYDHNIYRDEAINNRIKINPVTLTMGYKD
T1 sequence (P03452 18-528 limits assumed): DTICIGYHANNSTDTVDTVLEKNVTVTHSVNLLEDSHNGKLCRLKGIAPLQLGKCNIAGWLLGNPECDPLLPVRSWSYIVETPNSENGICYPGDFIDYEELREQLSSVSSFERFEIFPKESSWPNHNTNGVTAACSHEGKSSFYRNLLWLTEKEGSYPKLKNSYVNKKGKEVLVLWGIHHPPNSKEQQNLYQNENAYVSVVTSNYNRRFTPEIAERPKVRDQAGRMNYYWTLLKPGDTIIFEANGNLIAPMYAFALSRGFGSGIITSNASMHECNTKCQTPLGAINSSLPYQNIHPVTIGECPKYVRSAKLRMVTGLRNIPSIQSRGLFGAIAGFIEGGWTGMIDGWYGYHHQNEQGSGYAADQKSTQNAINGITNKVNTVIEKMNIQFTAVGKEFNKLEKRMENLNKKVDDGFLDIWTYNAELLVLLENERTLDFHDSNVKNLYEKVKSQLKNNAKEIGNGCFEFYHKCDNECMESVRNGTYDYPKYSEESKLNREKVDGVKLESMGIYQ

CSCC[C@@H]1NC(=O)CNC(=O)CNC(=O)[C@H](C)NC(=O)[C@H](C(C)C)NC(=O)CNC(=O)[C@H](CC(C)C)NC(=O)[C@@H]2CCCN2C(=O)[C@H](CC(=O)O)NC(=O)[C@H](CCC(=O)O)NC(=O)[C@H](Cc2ccc(O)cc2)NC(=O)[C@H](CC(C)C)NC(=O)[C@H](CO)NC(=O)[C@H](C(C)C)NC(=O)[C@H]2CCCN2C(=O)[C@@H]2CCCN2C(=O)[C@H](Cc2ccc(O)cc2)NC(=O)[C@H](C(C)C)NC(=O)CNC1=O [CP1]
KD [1]: N.B. | Kd [2]: 91 nM | KD [3]: N.B. | KD [4]: N.B. | KD [5]: N.B. | Kd [6]: 128 nM | KD [7]: N.B. | improvement in binding affinity versus linear peptide LP1 [8]: 60 fold | Kd ([8]; read-out: KD): 54 nM | Kd ([8]; read-out: KD by SPR): 50 nM | IC50 [9]: 49 nM and 50 nM | Protection of HA from low pH-induced conversion to trypsin-susceptible conformation [10]: inhibits the conversion of H1/PR8 HA to the post-fusion conformation | IC50 [11]: 52 ± 20 nM | improvement in binding in AlphaLISA versus LP1 [12]: 60- to 440 fold | IC50 ([12]; read-out: IC50 in AlphaLISA (range over HAs)): 52 to 840 nM | IC50 [13]: 840 ± 130 nM | KD [14]: N.B. | Kd [15]: > 1000 nM | half-life / residence time t1/2 (range over HAs) [16]: 5 to 46 s | slower dissociation (koff) compared to LP1 [16]: 9- to 180 fold | faster koff rate against H5 versus H1 HA [17]: 14 fold | efflux ratio ([18]; LLC-PK1, Efflux ratio BA/AB, LLC-MDR1, + 5 µM GF120918): 1.36 | efflux ratio ([18]; LLC-PK1, Efflux ratio BA/AB, LLC-MDR1, no inhibitor): 1.57 | efflux ratio ([18]; LLC-PK1, Efflux ratio, text: LLC-parent and LLC-MDR1, in the presence and absence of elacridar (GF120918)): < 2 | Papp A→B ([18]; + 5 µM GF120918): 0.23 ± 0.04 ×10⁻⁶ cm/s | Papp A→B ([18]; no inhibitor): 0.21 ± 0.03 ×10⁻⁶ cm/s | Papp B→A ([18]; + 5 µM GF120918): 0.32 ± 0.02 ×10⁻⁶ cm/s | Papp B→A ([18]; no inhibitor): 0.33 ± 0.08 ×10⁻⁶ cm/s | Binding against group 2 or influenza B HAs in SPR [19]: no binding | Kd [20]: 23 nM | KD [21]: N.B. | KD [22]: N.B. | Neutralization activity against H5N1 virus (in words) [23]: modest activity | IC50 [24]: 55 nM | Kd [25]: 2300 nM | recovery ([26]; LLC-PK1): 92.9% | efflux ratio ([26]; + 5 µM GF120918): 2.97 | efflux ratio ([26]; no inhibitor): 2.55 | Papp B→A ([26]; + 5 µM GF120918): 0.22 ± 0.12 ×10⁻⁶ cm/s | Papp B→A ([26]; no inhibitor): 0.19 ± 0.09 ×10⁻⁶ cm/s | Papp A→B ([26]; LLC-PK1, pH 7.4): 0.07 ± 0.01 ×10⁻⁶ cm/s | Kd [27]: 1100 nM | Kd (H2N2 A/Adachi/2/1957 HA): > 1000 nM | KD [28]: N.B. | Kd [29]: 101 nM | KD [30]: N.B.
